Assay results reported in article PMC11945486, “TAS1R2/TAS1R3 Single-Nucleotide Polymorphisms Affect Sweet Taste Receptor Activation by Sweeteners: The SWEET Project” (Nutrients, 2025).
No end group written: not given here.

T1: human TAS1R2-A574T/TAS1R3-WT (Homo sapiens, UniProt Q7RTX0+Q8TE23, A574T)
T1 construct: expressed in transfected cells; host or cells: HEK293T-Gα16gust44
T1 sequence (Q8TE23 20-839 A574T): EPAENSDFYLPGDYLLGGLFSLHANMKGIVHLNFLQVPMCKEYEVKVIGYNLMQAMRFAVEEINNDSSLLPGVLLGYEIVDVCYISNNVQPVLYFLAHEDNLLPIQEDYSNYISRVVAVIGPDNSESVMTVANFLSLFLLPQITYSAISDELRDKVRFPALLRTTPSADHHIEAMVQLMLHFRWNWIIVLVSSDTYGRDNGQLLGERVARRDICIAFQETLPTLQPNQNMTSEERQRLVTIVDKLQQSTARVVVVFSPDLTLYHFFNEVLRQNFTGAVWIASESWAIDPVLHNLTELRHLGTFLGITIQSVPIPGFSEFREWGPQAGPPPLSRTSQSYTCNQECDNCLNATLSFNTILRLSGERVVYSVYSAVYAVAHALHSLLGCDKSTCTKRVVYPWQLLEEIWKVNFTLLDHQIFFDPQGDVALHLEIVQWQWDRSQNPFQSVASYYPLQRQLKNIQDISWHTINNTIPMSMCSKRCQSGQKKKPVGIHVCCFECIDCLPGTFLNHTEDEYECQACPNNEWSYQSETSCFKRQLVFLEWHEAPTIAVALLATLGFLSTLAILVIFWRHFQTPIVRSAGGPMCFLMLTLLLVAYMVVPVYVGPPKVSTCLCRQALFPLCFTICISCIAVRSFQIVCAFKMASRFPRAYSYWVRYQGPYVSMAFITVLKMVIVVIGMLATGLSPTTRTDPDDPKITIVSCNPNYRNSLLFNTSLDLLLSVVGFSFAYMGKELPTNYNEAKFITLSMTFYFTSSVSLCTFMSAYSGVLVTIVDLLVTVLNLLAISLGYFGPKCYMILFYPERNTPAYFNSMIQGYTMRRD
T1 sequence (Q7RTX0 21-852): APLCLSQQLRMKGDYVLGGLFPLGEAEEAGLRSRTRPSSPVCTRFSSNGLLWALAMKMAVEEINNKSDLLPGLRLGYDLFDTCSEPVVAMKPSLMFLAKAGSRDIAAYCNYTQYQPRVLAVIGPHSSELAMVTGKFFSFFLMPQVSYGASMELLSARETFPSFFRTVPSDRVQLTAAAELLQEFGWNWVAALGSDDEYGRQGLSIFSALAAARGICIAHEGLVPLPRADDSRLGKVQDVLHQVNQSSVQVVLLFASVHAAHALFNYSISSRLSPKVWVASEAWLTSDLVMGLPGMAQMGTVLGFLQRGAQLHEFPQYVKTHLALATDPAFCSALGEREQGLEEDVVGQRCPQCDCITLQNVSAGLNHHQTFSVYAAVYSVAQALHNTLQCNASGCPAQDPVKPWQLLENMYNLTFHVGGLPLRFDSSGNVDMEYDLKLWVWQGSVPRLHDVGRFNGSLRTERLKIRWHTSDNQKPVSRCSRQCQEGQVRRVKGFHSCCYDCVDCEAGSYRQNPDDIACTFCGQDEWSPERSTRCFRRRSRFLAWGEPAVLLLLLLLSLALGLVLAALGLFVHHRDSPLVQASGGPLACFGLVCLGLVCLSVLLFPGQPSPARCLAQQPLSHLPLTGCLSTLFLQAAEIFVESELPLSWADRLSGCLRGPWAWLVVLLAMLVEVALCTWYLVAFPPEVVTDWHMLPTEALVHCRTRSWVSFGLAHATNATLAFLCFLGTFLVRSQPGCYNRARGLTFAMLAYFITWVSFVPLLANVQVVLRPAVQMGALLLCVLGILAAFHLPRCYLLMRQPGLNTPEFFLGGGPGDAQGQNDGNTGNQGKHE

B1: thaumatin (protein)
chain: ATFEIVNRCSYTVWAAASKGDAALDAGGRQLNSGESWTINVEPGTKGGKIWARTDCYFDDSGSGICKTGDCGGLLRCKRFGRPPTTLAEFSLNQYGKDYIDISNIKGFNVPMDFSPTTRGCRGVRCAADIVGQCPAKLKAPGGGCNDACTVFQTSEYCCTTGKCGPTEYSRFFKRLCPDAFSYVLDKPTTVTCPGSSNYRVTFCPTA
modifications: Eight disulfides
notes: sweet-tasting plant protein, E957

Target: T1, human TAS1R2-A574T/TAS1R3-WT
Assay: Calcium mobilisation assay, TAS1R2 variant A574T with TAS1R3-WT
Format: cell-based
Settings: for Max ΔF/F0: maximal signal amplitude
Text: The coding sequences for TAS1R2 and TAS1R3 were commercially synthesised, and the human codon was optimised for expression in human cells. The coding sequences of human TAS1R2 and TAS1R3 were subcloned and inserted into the mammalian expression vectors pcDNA6/myc-HisA and pcDNA4/myc-HisA (Invitrogen; Thermo Fisher Scientific; Illkirch, France) between the EcoRI and NotI restriction sites, generating the plasmids pcDNA6-TAS1R2 and pcDNA4-TAS1R3, respectively. To increase protein expression in mammalian cells, an upstream start codon was used, which was a sequence called MAX, corresponding to the QBI SP163 element also described in pcDNA4-HisMax (Invitrogen; Thermo Fisher Scientific; Illkirch, France). To measure the expression level of the receptor by immunohistochemistry, we used the FLAG sequence ([…]) in the C-terminal position, which encodes the FLAG tag epitope. SNP variants of TAS1R2 and TAS1R3 were constructed based on […], respectively, using site-directed mutagenesis (Genewiz; Leipzig, Germany).
The HEK293T cells were kindly provided by Jay P. Slack (Givaudan Flavors Corporation; Cincinnati, OH, USA). HEK293T cells stably transfected with Gα16gust44 [43, 67] were seeded in poly-D-lysine-coated clear-bottom black 96-well plates (0.35 × 10^5 cells/well) in high-glucose DMEM supplemented with 2 mM GlutaMAX, 10% dialysed foetal bovine serum with penicillin/streptomycin and G418 (400 μg/mL) at 37 °C and 6.3% CO2 in a humidified atmosphere as previously reported. […] As a negative control, HEK293T cells were mock-transfected with the empty expression vector. After a further 24 h of incubation, the HEK293T cells were washed with C1 buffer (130 mM NaCl, 5 mM KCl, 10 mM HEPES pH 7.4 and 2 mM CaCl2). The 96-well plates containing the cells were then stimulated with sweet-tasting compounds. […] Different concentration ranges were tested depending on the sweet compound injected. The Ca^2+ changes were expressed as fractional changes in fluorescent light intensity: ΔF/F = (F − F0)/F0, where F was the fluorescent light intensity at each point, and F0 was the value of emitted fluorescent light prior to stimulus application. To calculate dose–response relationships, the changes in fluorescence upon stimulus application were averaged, mock-subtracted and baseline-corrected. The dose–response data obtained were adjusted using a 4-parameter logistic equation. The half-maximal effective concentrations (EC50 values) and maximal signal amplitudes were calculated using SigmaPlot software (version 15.0) (Systat Software; San Jose, CA, USA).
For in vitro calcium mobilisation assay performed on hTAS1R2-SNPs, hTAS1R3-SNPs and mTAS1R3-I60T, 6 to 7 concentrations were tested for each sweet compound, plus buffer alone. All concentration–receptor combinations were measured in duplicate, and each experiment was repeated at least 4 times (8 wells/concentration). Results were expressed for each concentration as ΔF/F mean ± SEM and represented as dose–response curves.

Molecule | EC50 [µM] | R1 = Variant EC50/WT EC50 | Max ΔF/F0
C=C(C)[C@@H]1CC=C(/C=N/O)CC1 [Perillartine, perillartine] | 19.2 ± 0.9 | 1.1 | 1.39 ± 0.02
O=S(=O)(O)NC1CCCCC1 [Cyclamate, cyclamate] | 1780 ± 49 | – | –
C=C1C[C@@]23CC[C@H]4[C@@](C)(CCC[C@@]4(C)C(=O)O[C@@H]4O[C@H](CO)[C@@H](O)[C@H](O[C@@H]5O[C@H](CO)[C@@H](O)[C@H](O)[C@H]5O)[C@H]4O[C@@H]4O[C@H](CO)[C@@H](O)[C@H](O)[C@H]4O)[C@@H]2CC[C@]1(O[C@@H]1O[C@H](CO)[C@@H](O)[C@H](O[C@@H]2O[C@H](CO)[C@@H](O)[C@H](O)[C@H]2O)[C@H]1O[C@@H]1O[C@H](CO)[C@@H](O)[C@H](O)[C@H]1O)C3 [Rebaudioside M, rebaudioside M] | 16.3 ± 0.5 | 1.0 | 1.08 ± 0.01
OC[C@H]1O[C@H](O[C@]2(CCl)O[C@H](CCl)[C@@H](O)[C@@H]2O)[C@H](O)[C@@H](O)[C@H]1Cl [Sucralose] | 81 ± 2 | 0.9 | 0.63 ± 0.01
CC1=CC(=O)NS(=O)(=O)O1 [Acesulfame K, acesulfame K] | 658 ± 65 | 0.9 | 0.34 ± 0.02
brazzein (QDKCKKVYENYPVSKCQLANQCNYDCKLDKHARSGECFYDEKRNLQCICDYCEY; ends and bridges not checked; cysteine pairing not given here; UniProt P56552 1-54, looked up) [sweet-tasting protein obtained by recombinant production using the yeast Pichia pastoris] | – | 1.2 | 1.14 ± 0.01
thaumatin | – | 1.9 | 1.37 ± 0.02
COC(=O)[C@H](Cc1ccccc1)NC(=O)[C@H](CC(=O)O)NCCC(C)(C)C [Neotame] | 0.73 ± 0.03 | 0.9 | 0.60 ± 0.01
C[C@H](CC[C@@H](O[C@@H]1O[C@H](CO[C@@H]2O[C@H](CO)[C@@H](O)[C@H](O)[C@H]2O)[C@@H](O)[C@H](O)[C@H]1O[C@@H]1O[C@H](CO)[C@@H](O)[C@H](O)[C@H]1O)C(C)(C)O)[C@H]1CC[C@@]2(C)[C@@H]3CC=C4[C@@H](CC[C@H](O[C@@H]5O[C@H](CO[C@@H]6O[C@H](CO)[C@@H](O)[C@H](O)[C@H]6O)[C@@H](O)[C@H](O)[C@H]5O)C4(C)C)[C@]3(C)[C@H](O)C[C@]12C [Mogroside V, mogroside V] | 16.7 ± 3.1 | 1.0 | 1.25 ± 0.08
COc1ccc(CCC(=O)c2c(O)cc(O[C@@H]3O[C@H](CO)[C@@H](O)[C@H](O)[C@H]3O[C@@H]3O[C@@H](C)[C@H](O)[C@@H](O)[C@H]3O)cc2O)cc1O [NHDC, neohesperidin dihydrochalcone] | 73.4 ± 8.4 | 1.0 | 0.81 ± 0.03
B1 | 14.1 ± 0.3 | – | –
